Molecular target: T1, synthetic Aβ 1-40 (Homo sapiens, UniProt P05067)
T1 construct: using synthetic Aβ 1-40 in 2.7 nM of [^3H]PIB
Assay: Competition binding assay ([3H]PIB as radioligand)
Settings: [3H]PIB 2.7 nM as radioligand, synthetic Aβ 1-40, phosphate buffer pH 7.5, 30 min room temperature; read-out: IC50 in the competion binding assay
Procedure: Competition binding was performed in 384-well FB filter plates using synthetic Aβ 1-40 in 2.7 nM of [^3H]PIB (or another ^3H-labeled radioligand when so mentioned) in phosphate buffer at pH 7.5, by adding various concentrations of non-radioactive compounds originally dissolved in DMSO. The binding mixture was incubated for 30 min at room temperature, followed by vacuum filtration, and subsequently by washing twice with 1% Triton-X100. Scintillation fluid was thereafter added to the collected Aβ 1-40 on the filter plate, and the activity of the bound remaining radioligand ([^3H]PIB or another ^3H-labeled radioligand) was measured using 1450 Microbeta from PerkinElmer. Specific binding was determined according to the competion binding assay described herein. The determined IC50's in the competion binding assays (using [^3H]PIB as radioligand) of compounds of the present invention are shown in Table 1.

T1 sequence (P05067 672-711 limits assumed): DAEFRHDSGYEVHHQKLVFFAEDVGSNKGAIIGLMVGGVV

Structure (SMILES) | IC50
CNc1ccc(-c2cc3cc(O)ccc3[nH]2)cn1 [2-[6-(Methylamino)pyridin-3-yl]-1H-indol-5-ol] | 736 nM
NC(=O)c1ccc(-c2cc3ccccc3[nH]2)cn1 [5-(1H-indol-2-yl)pyridine-2-carboxamide, 5-(1H-Indol-2-yl)pyridine-2-carboxamide] | 143 nM
CNc1ccc(-c2cc3cc(OC)ccc3[nH]2)cn1 [5-(5-Methoxy-1H-indol-2-yl)—N-methylpyridin-2-amine] | 201 nM
COC(=O)c1ccc(-c2cc3cc(O)ccc3[nH]2)nc1 [6-(5-Hydroxy-1H-indol-2-yl)-Nicotinic Acid Methyl Ester] | 140 nM
CC(C)(C)OC(=O)n1c(-c2ccc(C(N)=O)nc2)cc2cc(F)ccc21 [tert-Butyl 2-(6-carbamoylpyridin-3-yl)-5-fluoro-1H-indole-1-carboxylate] | 5370 nM

Results, then the compound that gave them:

IC50 | Structure (SMILES)
152 nM | CNc1ccc(-c2cc3cc(F)ccc3[nH]2)cn1 [5-(5-Fluoro-1H-indol-2-yl)—N-methylpyridin-2-amine]
141 nM | COC(=O)c1ccc(-c2cc3cc(OC)ccc3[nH]2)nc1 [Methyl 6-(5-methoxy-1H-indol-2-yl)-nicotinate]

— patent publication US20100098631A1, “Novel-2-Heteroaryl Substituted Indoles 695” (ASTRAZENECA AB, priority 2007, published 2010)
